In patent US20230029486A1, “A METHOD FOR ENHANCING THE PHARMACOKINETICS OR INCREASING THE PLASMA CONCENTRATION OF METHYL 3-((METHYLSULFONYL)AMINO)-2-(((4-PHENYLCYCLOHEXYL)OXY)METHYL)PIPERIDINE-1-CARBOXYLATE OR A SALT THEREOF WITH AN INHIBITOR OF CYTOCHROME P450” (TAKEDA PHARMACEUTICAL COMPANY LIMITED, priority 2020, published 2023):
Like-named read-outs stand apart in the source and are kept apart here.

Experiments:
[1] = test system: rodent model of narcolepsy; conditions: cited from earlier work
nonhuman primates = conditions: cited from earlier work
healthy mice = conditions: cited from earlier work
[2] = intravenous single dose studies, healthy volunteers and NT1 patients; cited from earlier work
CYP3A = test: Midazolam as in vivo probe for human CYP3A activity under cobicistat; conditions: 0.5 mg midazolam oral with 150 mg cobicistat QD, Day 7 and Day 10, versus 1 mg midazolam alone
Experimental: Midazolam is a benzodiazepine derivative that is exclusively metabolized by the CYP3A enzymatic pathway and therefore, was used as an in vivo probe for human CYP3A activity.
On Day 1, subjects received 1 mg midazolam orally and pharmacokinetic (PK) blood samples for midazolam (and its metabolite 1-hydroxy (1-OH) midazolam) were collected predose and up until 24 hours postdose to establish baseline cytochrome P450 (CYP) 3A activity.
On Days 7 and 10, 0.5 mg midazolam were administered orally (30 minutes after the cobicistat dose) and PK blood for midazolam and 1-OH midazolam were collected on each of these days, predose and up until 24 hours post midazolam dosing.
Blood PK sampling for midazolam and its metabolite (1-hydroxymidazolam): • Study Day 1: predose (prior to midazolam administration), 0.5, 1, 1.5, 2, 4, 6, 8, 12 hours postdose • Study Day 2: 24 hours post Day 1 dosing and prior to start of Compound A IV infusion • Study Day 7: predose (prior to cobicistat and midazolam administration), 0.5, 1, 1.5, 2, 4, 6, 8, 12 hours post midazolam dosing • Study Day 8: 24 hours post Day 7 midazolam dosing and prior to cobicistat administration • Study Day 10: predose (prior to cobicistat and midazolam administration), 0.5, 1, 1.5, 2, 4, 6, 8, 12 hours post midazolam dosing • Study Day 11: 24 hours post Day 10 midazolam dosing and prior to cobicistat administration

[3] = Phase 1 open-label study: single-dose plasma pharmacokinetics of Compound A with and without cobicistat; format: in vivo, human; conditions: for DNAUCinf112 (Day 12) / DNAUClast112 (Day 12) / DNCmax112 (Day 12): 14 mg Compound A oral + MD 150 mg cobicistat; for DNAUCinf112 (Day 12) / DNAUClast112 (Day 12) / DNCmax112 (Day 12) / DNAUCi nf 112Ratio (Day 12/Day 3) / DNAUCla st 112Ratio (Day 12/Day 3) / DNCma x 112Ratio (Day 12/Day 3) / DNAUCinf112 (Day 3) / DNAUClast112 (Day 3) / DNCmax112 (Day 3): n=15; for DNAUCi nf 112Ratio (Day 12/Day 3) / DNAUCla st 112Ratio (Day 12/Day 3) / DNCma x 112Ratio (Day 12/Day 3): 14 mg oral + cobicistat versus 112 mg oral alone, dose-normalized
From the text: The purpose of this study was to evaluate the effect of cobicistat on Compound A. The primary goal was to evaluate whether cobicistat can boost plasma concentrations of oral Compound A in humans and therefore, can be used in combination with Compound A as part of an oral dose regimen. The magnitude of this intentional drug-drug interaction (DDI) is also quantified. This was a non-randomized, open-label, fixed-sequence study in healthy male and female (women of non-childbearing potential [WONCBP]) subjects. […] Predose blood samples for cobicistat PK were also collected on Days 7, 9, 10, and 11. […] PK blood samples for cobicistat were collected predose on Day 12 and up until 24 hours post cobicistat dosing and at 24-hour post Day 13 cobicistat dosing. Plasma pharmacokinetic parameters of Compound A after oral administration with and without cobicistat as follows • Maximum observed concentration (Cmax). • Area under the concentration-time curve from time 0 to infinity, calculated using the observed value of the last quantifiable concentration (AUCinf). • Area under the concentration-time curve from time 0 to the time of the last quantifiable concentration (AUClast). […] Plasma pharmacokinetic parameters of Compound A after oral administration with and without cobicistat (Cmax, AUCinf and AUClast) were calculated.

[4] = Safety and tolerability of single oral dose of Compound A with and without cobicistat; format: in vivo, human; conditions: single oral dose of Compound A with steady state cobicistat, healthy adult subjects
Experimental: · To evaluate the safety and tolerability of a single oral dose of Compound A with and without cobicistat.
Safety was assessed by monitoring for adverse events (AEs), vital signs, safety 12-lead electrocardiograms (ECGs), safety laboratory assessments, pulse oximetry, C-SSRS (Columbia Suicide Severity Rating Scale), and physical examinations throughout the study.

[5] = 14 mg Compound A oral + QD 150 mg cobicistat compared to 14 mg IV alone (9-hour IV infusion)
[6] = 14 mg Compound A oral + QD 150 mg cobicistat versus 112 mg oral alone, dose-normalized to 112 mg
[7] = 112 mg Compound A oral alone compared to 14 mg Compound A IV alone
[8] = Geom Mean, dose-normalized to 112 mg
[9] = Geom Mean, 112 mg Compound A oral alone
[10] = Mean, dose-normalized to 112 mg
[11] = Mean, 112 mg Compound A oral alone

In the case of `COC(=O)N1CCCC(NS(C)(=O)=O)C1COC1CCC(c2ccccc2)CC1` (stereo not shown) [methyl 3-((methylsulfonyl)amino)-2-(((4-phenylcyclohexyl)oxy)methyl)piperidine-1-carboxylate], the improving wakefulness [1] is listed as “significant effects”, the reducing cataplexy-like symptoms [1] is listed as “significant effects” and the wakefulness (nonhuman primates) is listed as “promoted wakefulness”. For the same compound, the wakefulness (healthy mice) was “promoted wakefulness” and the safety and tolerability [2] was “safe and well-tolerated”.

In the case of `Cc1ncc2n1-c1ccc(Cl)cc1C(c1ccccc1F)=NC2` [midazolam], the “midazolam Cmax, increase with cobicistat” value (CYP3A) is reported as “approximately 5 fold”.

For `COC(=O)N1CCC[C@H](NS(C)(=O)=O)[C@@H]1CO[C@H]1CC[C@@H](c2ccccc2)CC1` [Compound A, methyl (2R,3S)-3-((methylsulfonyl)amino)-2-(((cis-4-phenylcyclohexyl)oxy)methyl)piperidine-1-carboxylate], the “mean t1/2z” value ([3]; 14 mg Compound A IV alone) was 3.7 h, the “mean t1/2z” value ([3]; 14 mg Compound A oral + QD 150 mg cobicistat) was ~ 8 hours and the “geometric mean dose-normalized AUC∞, increase over IV” value [3, 5] was 2.8 fold. For the same compound, the “geometric mean dose-normalized Cmax, increase over IV” value [3, 5] was 7.9 fold, the “increase of geometric LSM AUClast” value [3, 6] was about 109 fold and the “increase of geometric LSM AUC∞” value [3, 6] was about 109 fold. For the same compound, the “increase of geometric LSM Cmax” value [3, 6] was “approximately 50 fold”, the “dose-normalized Cmax, AUCinf and AUClast of plasma Compound A, Day 12 versus Day 3” value ([3]; 14 mg oral + MD 150 mg cobicistat versus 112 mg oral alone) was “much higher” and the “mean t1/2z” value ([3]; 112 mg Compound A oral alone) was 4.9 h. For the same compound, the “geometric mean dose-normalized AUC∞, lower than IV” value [3, 7] was about 97%, the “geometric mean dose-normalized Cmax, lower than IV” value [3, 7] was “approximately 84%” and the “DNAUCinf112 (Day 12)” value [3, 8] was 7623 ng*hr/mL/112 mg Compound A. The “DNAUClast112 (Day 12)” value [3, 8] was 7504 ng*hr/mL/112 mg Compound A, the “DNCmax112 (Day 12)” value [3, 8] was 2253 ng/mL/112 mg Compound A and the “DNAUCi nf 112Ratio (Day 12/Day 3)” value ([3]; Geom Mean) was 10942%. The “DNAUCla st 112Ratio (Day 12/Day 3)” value ([3]; Geom Mean) was 10871%, the “DNCma x 112Ratio (Day 12/Day 3)” value ([3]; Geom Mean) was 5028% and the “DNAUCinf112 (Day 3)” value [3, 9] was 69.67 ng*hr/mL/112 mg Compound A. The “DNAUClast112 (Day 3)” value [3, 9] was 69.02 ng*hr/mL/112 mg Compound A, the “DNCmax112 (Day 3)” value [3, 9] was 44.81 ng/mL/112 mg Compound A and the “DNAUCinf112 (Day 12)” value [3, 10] was 8448 ng*hr/mL/112 mg Compound A. For the same compound, the “DNAUClast112 (Day 12)” value [3, 10] was 8231 ng*hr/mL/112 mg Compound A, the “DNCmax112 (Day 12)” value ([3]; Mean, dose-normalized to 112 mg, plasma, healthy subjects) was 2335 ng/mL/112 mg Compound A and the “DNAUCi nf 112Ratio (Day 12/Day 3)” value ([3]; Mean) was 14349%. The “DNAUCla st 112Ratio (Day 12/Day 3)” value ([3]; Mean) was 14385%, the “DNCma x 112Ratio (Day 12/Day 3)” value ([3]; Mean) was 8290% and the “DNAUCinf112 (Day 3)” value [3, 11] was 94.59 ng*hr/mL/112 mg Compound A. For the same compound, the “DNAUClast112 (Day 3)” value [3, 11] was 94.21 ng*hr/mL/112 mg Compound A, the “DNCmax112 (Day 3)” value ([3]; Mean, 112 mg Compound A oral alone, plasma, healthy subjects) was 66.35 ng/mL/112 mg Compound A and the “systemic exposures of Compound A administered orally, effect of cobicistat” value ([3]; via potent CYP3A inhibition, healthy adult subjects) was “significantly increased”. The safety and tolerability [4] was “generally safe and well tolerated”.
